{
  "source": "patent US20130324493A1",
  "about": "“COMPOSITIONS COMPRISING NINGNANMYCIN AND USES THEREFOR” (North Carolina State University, priority 2012, published 2013)",
  "key": {"honey bee": {"test_system": "honey bee", "conditions": "cited from earlier work"}, "rat [1]": {"test_system": "rat", "conditions": "cited from earlier work"}, "Sclerotinia homoeocarpa": {"test_system": "Sclerotinia homoeocarpa", "assay": "In vitro sensitivity assay (radial growth on fungicide-amended PDA)", "type": "cell-based", "conditions": "Clarireedia homoeocarpa", "experimental": "(§1) Three isolates of S. homoeocarpa and two isolates of C. cereale were selected to evaluate ningnanmycin (Ningnanmycin 10WP, Deqiang Biological Co., LTD. Harbin, Helongjiang, China) in vitro activities using 5 three-fold dilutions from 0.81 to 0.01 μg a.i./ml. […] Based on preliminary experiments, five dilutions of triticonazole were used, ranging from 0.81 to 0.01 μg a.i/ml for isolates of S. homoeocarpa and from 6.25 to 0.01 μg a.i./ml for isolates of C. cereale. All isolates were prepared for long-term storage on pieces of dried filter paper maintained at −80° C. Filter paper sections containing each isolate were removed from −80° C. storage and placed on PDA amended with 0.05 μg/ml each of chloramphenicol, streptomycin, and tetracycline (PDA+++). After 3 days, mycelium-containing plugs (1×1 cm) were transferred to water agar for another 2 days. Then, water agar plugs (0.45 cm diameter) were cut from the periphery of the colony using a cork borer and placed on the center of Petri dishes containing non-amended PDA and PDA amended with the serial concentrations of each fungicide with three replicates per isolate. Radial growth was measured after three days (72 h) incubation at room temperature for isolates of S. homoeocarpa and seven days for isolates of C. cereale. Relative Growth (RG) was calculated by dividing colony diameter on amended PDA by that on the non-amended PDA. EC50 values were then calculated using the method described by Secor et al. (Fungicide resistance assays for fungal plant pathogens. Methods Mol Biol. 835:385-392, 2012). The in vitro sensitivity assay repeated twice and EC50 value of each isolates was determined as the mean of EC50 values from two assays."}, "Colletotrichum cereale": {"test_system": "Colletotrichum cereale", "assay": "In vitro sensitivity assay (radial growth on fungicide-amended PDA)", "type": "cell-based", "experimental": "as §1"}, "anthracnose (C. cereale)": {"test_system": "anthracnose (C. cereale)", "assay": "Field efficacy test, control of anthracnose on putting green turf", "type": "in vivo, 'Dominant Plus' creeping bentgrass", "conditions": "Trinity 1.69SC 0.32 ml/m^2, 14 d interval; for Turf quality: 1-to-9 scale (9 = best), anthracnose trial"}, "Lepomis macrochirus": {"test_system": "Lepomis macrochirus", "conditions": "cited from earlier work"}, "Oncorhynchus mykiss": {"test_system": "Oncorhynchus mykiss", "conditions": "cited from earlier work"}, "rabbit [2]": {"test_system": "rabbit", "conditions": "in vivo; cited from earlier work"}, "rat [3]": {"test_system": "rat", "conditions": "Trinity 1.69SC MSDS; cited from earlier work"}, "green algae": {"test_system": "green algae", "conditions": "in vivo; cited from earlier work"}, "rabbit [4]": {"test_system": "rabbit", "conditions": "in vivo; cited from earlier work", "remark": "listed apart in the source"}, "guinea pig": {"test_system": "guinea pig", "conditions": "in vivo; cited from earlier work"}},
  "note": "Read-outs that look alike come from different tables or passages of the source.",
  "data": [
    {"smiles": "CC1(C)CCC(=Cc2ccc(Cl)cc2)C1(O)Cn1cncn1", "note": "(stereo not shown) [triticonazole, reference compound]", "values": [
      {"measurement": "Non-mammals, honey bee", "setting": "honey bee", "result": 1.87, "unit": "μg/bee"},
      {"measurement": "Acute toxicity Dermal LD50", "setting": "rat [1]", "result": ">2,000/mg/kg"},
      {"measurement": "EC50", "setting": "Sclerotinia homoeocarpa; 72 h, isolate 761SHME, radial growth after 72 h, mean of two assays, Ningnanmycin 10WP / technical triticonazole, μg a.i./ml, read-out: EC50", "result": 0.05, "unit": "µg/mL"},
      {"measurement": "EC50", "setting": "Sclerotinia homoeocarpa; 72 h, isolate LWC 27, radial growth after 72 h, mean of two assays, read-out: EC50", "result": 0.06, "unit": "µg/mL"},
      {"measurement": "EC50", "setting": "Sclerotinia homoeocarpa; 72 h, isolate PST4, radial growth after 72 h, mean of two assays, read-out: EC50", "result": 0.03, "unit": "µg/mL"},
      {"measurement": "EC50", "setting": "Sclerotinia homoeocarpa; mean of three isolates, read-out: mean EC50", "result": 0.05, "unit": "µg/mL"},
      {"measurement": "EC50", "setting": "Colletotrichum cereale; 168 h, isolate ABR1, radial growth after seven days, mean of two assays, read-out: EC50", "result": 1.24, "unit": "µg/mL"},
      {"measurement": "EC50", "setting": "Colletotrichum cereale; 168 h, isolate ABR12, radial growth after seven days, mean of two assays, read-out: EC50", "result": 0.72, "unit": "µg/mL"},
      {"measurement": "EC50", "setting": "Colletotrichum cereale; mean of two isolates, read-out: mean EC50", "result": 0.98, "unit": "µg/mL"},
      {"measurement": "Turf quality", "setting": "anthracnose (C. cereale); Aug. 8, 2010", "result": 5},
      {"measurement": "Turf quality", "setting": "anthracnose (C. cereale); Aug. 15, 2010", "result": 5},
      {"measurement": "Anthracnose severity (%)", "setting": "anthracnose (C. cereale); Aug. 1, 2011", "result": 17, "unit": "%"},
      {"measurement": "Anthracnose severity (%)", "setting": "anthracnose (C. cereale); Aug. 8, 2011", "result": 3, "unit": "%"},
      {"measurement": "Anthracnose severity (%)", "setting": "anthracnose (C. cereale); Aug. 15, 2011", "result": 12, "unit": "%"},
      {"measurement": "Anthracnose severity (%)", "setting": "anthracnose (C. cereale); Jul. 25, 2011", "result": 16, "unit": "%"},
      {"measurement": "Fish LC50 (96 h)", "setting": "Lepomis macrochirus", "result": ">8.9 mg/L (Lepomis"},
      {"measurement": "Fish LC50 (96 h)", "setting": "Oncorhynchus mykiss", "result": ">3.6", "unit": "µg/mL"},
      {"measurement": "Irritation to skin", "setting": "rabbit [2]", "result": "moderately irritating"},
      {"measurement": "Acute toxicity Oral LD50", "setting": "rat [3]", "result": ">5,000 mg/kg"},
      {"measurement": "Aquatic plants EC50", "setting": "green algae", "result": ">1 mg/L (96 h)"},
      {"measurement": "Irritation to eye", "setting": "rabbit [4]", "result": "slightly irritating"},
      {"measurement": "Sensitization", "setting": "guinea pig", "result": "no"}
    ]}
  ]
}
